Earlier results, collected in patent US8227599B2, “Adsorbents comprising anthraquinone dye-ligends for the separation of biological materials” (BASF SE, priority 2005, dated 2012).

System: Aspergillus terreus NADP-glutamate Dehydrogenase

Nc1c(S(=O)(=O)[O-])cc(Nc2ccc(Nc3nc(Cl)nc(Nc4ccccc4S(=O)(=O)[O-])n3)c(S(=O)(=O)[O-])c2)c2c1C(=O)c1ccccc1C2=O.[Na+].[Na+].[Na+] [Cibacron Blue 3GA]
Binding of NADP-GDH to the dye: does not bind
